Data on three compounds can be found in ChEMBL document CHEMBL1126081, “Active conformation of a tumor promoter, teleocidin. A molecular dynamics study” (1992).

SMILES strings stand for the structures.

This test has as its system HL-60. Description: Dose inducing HL-60 cell adhesion related to skin tumor promotion. The test is classed as functional, Homo sapiens.
Turning to `C[C@H]1C(=O)N[C@H](CO)Cc2c[nH]c3cccc(c23)N1C` (racemic), the ED50 turned out to be 3.7e-06 M l-1. The result for `CN1c2cccc3[nH]cc(c23)C[C@@H](CO)NC(=O)[C@@H]1C(C)(C)C` (racemic) reads 1.1e-07 M l-1. In the case of `CN1CC(=O)N[C@H](CO)Cc2c[nH]c3cccc1c23` (racemic) it was 3.9e-05 M l-1.
